# Measured values from US8592456B2 (4SC Discovery GmbH, priority 2011, dated 2013).
# System: PBMC (T cell proliferation)
# Test: T cell proliferation assay, PHA-stimulated human PBMC (BrdU ELISA)
# Format: cell-based
# Conditions: PHA-stimulated human PBMC, 48 hours, BrdU; column D; activity classes 1-4; read-out: IC50 (Tcell proliferation)
# Method: Cell proliferation was analysed using the BrdU based cell proliferation ELISA from Roche (Mannheim, Germany) according to the manufacturer's instructions.
# T Cell Proliferation Assay
# Peripheral blood mononuclear cells (PBMC) from healthy human donors were isolated by centrifugation over Ficoll-Hypaque (Sigma-Aldrich, Germany) according to manufacturer's instructions. Purified PBMC were washed twice with PBS and resuspended in RPMI1640 culture medium supplemented with 10% dialyzed heat inactivated fetal calf serum, 1.5 mM L-glutamine, 100 U penicillin/ml, and […] (all from PAN Biotech, Aidenbach, Germany). For stimulation, PBMC were seeded at 1×10^5 cells/well, activated with 2 μg/ml phytohaemagglutinin (PHA, Sigma) and incubated with the test compound. After 48 hours proliferation was measured using the BrdU based cell proliferation ELISA from Roche (Mannheim, Germany) according to the manual.
row,SMILES,IC50 [nM]
1,"Cc1nnc(-c2c(-c3c(F)cccc3Cl)noc2-c2cnn(-c3cccc(Cl)c3)c2C(F)(F)F)o1 [IB-4, 2-(3-(2-chloro-6-fluorophenyl)-5-(1-(3-chlorophenyl)-5-(trifluoromethyl)-1H-pyrazol-4-yl)isoxazol-4-yl)-5-methyl-1,3,4-oxadiazole]",< 10
2,"Fc1cccc(-n2ncc(-c3onc(-c4c(F)cccc4Cl)c3-c3nnco3)c2C(F)(F)F)c1 [Example I-7, 2-(3-(2-chloro-6-fluorophenyl)-5-(1-(3-fluorophenyl)-5-(trifluoromethyl)-1H-pyrazol-4-yl)isoxazol-4-yl)-1,3,4-oxadiazole]",10 to 100
3,"Fc1cccc(Cl)c1-c1noc(-c2cnn(-c3ccccn3)c2C(F)(F)F)c1-c1nnco1 [IB-25, 2-(3-(2-chloro-6-fluorophenyl)-5-(1-(pyridin-2-yl)-5-(trifluoromethyl)-1H-pyrazol-4-yl)isoxazol-4-yl)-1,3,4-oxadiazole]",10 to 100
4,"Cc1nnc(-c2c(-c3c(F)cccc3Cl)noc2-c2cnn(-c3cccnc3)c2C(F)(F)F)s1 [IB-21, 3-(2-chloro-6-fluorophenyl)-4-(5-methyl-1,3,4-thiadiazol-2-yl)-5-(1-(pyridin-3-yl)-5-(trifluoromethyl)-1H-pyrazol-4-yl)isoxazole]",10 to 100

# Same assay, conditions: human PBMC, 2 μg/ml PHA, 48 hours, BrdU; read-out: D: IC50 (Tcell proliferation)
row,SMILES,IC50 [nM]
1,"COC(=O)c1c(-c2ccc(Cl)cc2)noc1-c1cnn(-c2cccc(F)c2)c1C(F)(F)F [Example 73, methyl 3-(4-chlorophenyl)-5-(1-(3-fluorophenyl)-5-(trifluoromethyl)-1H-pyrazol-4-yl)isoxazole-4-carboxylate]",1000 to 10000
2,"COC(=O)c1c(-c2ccccc2)noc1-c1cnn(-c2cccc(Cl)c2)c1C(F)(F)F [Example B-30, methyl 5-(1-(3-chlorophenyl)-5-(trifluoromethyl)-1H-pyrazol-4-yl)-3-phenylisoxazole-4-carboxylate]",100 to 1000
3,"CCOC(=O)c1c(-c2onc(-c3c(F)cccc3Cl)c2C(=O)OC)cnn1-c1ccccc1F [Example 41, methyl 3-(2-chloro-6-phenyl)-5-(5-(ethoxycarbonyl)-1-(2-fluorophenyl)-1H-pyrazol-4-yl)isoxazole-4-carboxylate]",100 to 1000
4,"CNC(=O)c1c(-c2c(F)cccc2Cl)noc1-c1cnn(-c2ccccc2F)c1C(F)(F)F [Example 19, 3-(2-chloro-6-fluorophenyl)-5-(1-(2-fluorophenyl)-5-(trifluoromethyl)-1H-pyrazol-4-yl)-N-methylisoxazole-4-carboxamide]",1000 to 10000
5,"Fc1cccc(Cl)c1-c1noc(-c2cnn(-c3ccccc3)c2C(F)(F)F)c1Br [Example 145, 4-bromo-3-(2-chloro-6-fluorophenyl)-5-(1-phenyl-5-(trifluoromethyl)-1H-pyrazol-4-yl)isoxazole]",10 to 100
6,"COC(=O)c1c(-c2c(F)cccc2Cl)noc1-c1cnn(-c2cccc(NC(C)=O)c2)c1C(F)(F)F [Example B-89, 5-(1-(3-acetamidophenyl)-5-(trifluoromethyl)-1H-pyrazol-4-yl)-3-(2-chloro-6-fluorophenyl)isoxazole-4-carboxylate]",100 to 1000
7,"CNC(=S)c1c(-c2c(F)cccc2Cl)noc1-c1cnn(-c2ccc(F)cc2)c1C(F)(F)F [Example 76, 3-(2-chloro-6-fluorophenyl)-5-(1-(4-fluorophenyl)-5-(trifluoromethyl)-1H-pyrazol-4-yl)-N-methylisoxazole-4-carbothioamide]",1000 to 10000
8,"NNC(=O)c1c(-c2c(F)cccc2Cl)noc1-c1cnn(-c2cccc(F)c2)c1C(F)(F)F [Example 133, 3-(2-chloro-6-fluorophenyl)-5-(1-(3-fluorophenyl)-5-(trifluoromethyl)-1H-pyrazol-4-yl)isoxazole-4-carbohydrazide]",1000 to 10000
9,"CON(C)C(=O)c1c(-c2c(F)cccc2Cl)noc1-c1cnn(-c2cccc(Cl)c2)c1C(F)(F)F [Example 63, 3-(2-chloro-6-fluorophenyl)-5-(1-(3-chlorophenyl)-5-(trifluoromethyl)-1H-pyrazol-4-yl)-N-methoxy-N-methylisoxazole-4-carboxamide]",100 to 1000
10,"COC(=O)c1c(-c2c(F)cccc2Cl)noc1-c1cnn(-c2ccc(S(C)(=O)=O)cc2)c1C(F)(F)F [Example 85, methyl 3-(2-chloro-6-fluorophenyl)-5-(1-(4-(methylsulfonyl)phenyl)-5-(trifluoromethyl)-1H-pyrazol-4-yl)isoxazole-4-carboxylate]",1000 to 10000
11,"COC(=O)c1c(-c2c(F)cccc2Cl)noc1-c1cnn(-c2ccncc2)c1C(F)(F)F [Example B-69, methyl 3-(2-chloro-6-fluorophenyl)-5-(1-(pyridin-4-yl)-5-(trifluoromethyl)-1H-pyrazol-4-yl)isoxazole-4-carboxylate]",10 to 100
12,"COc1ccc(-c2noc(-c3cnn(-c4cccc(F)c4)c3C(F)(F)F)c2C(=O)O)cc1 [Example 108, 5-(1-(3-fluorophenyl)-5-(trifluoromethyl)-1H-pyrazol-4-yl)-3-(4-methoxyphenyl)isoxazole-4-carboxylic acid]",1000 to 10000
13,"Nc1c(-c2c(F)cccc2Cl)noc1-c1cnn(-c2cccc(Cl)c2)c1C(F)(F)F [Example B-36, 3-(2-chloro-6-fluorophenyl)-5-(1-(3-chlorophenyl)-5-(trifluoromethyl)-1H-pyrazol-4-yl)isoxazol-4-amine]",100 to 1000
14,"COC(=O)c1c(-c2c(F)cccc2Cl)noc1-c1cnn(-c2nc(-c3ccc(F)cc3)cs2)c1C(F)(F)F [Example 54, methyl 3-(2-chloro-6-fluorophenyl)-5-(1-(4-(4-fluorophenyl)thiazol-2-yl)-5-(trifluoromethyl)-1H-pyrazol-4-yl)isoxazole-4-carboxylate]",1000 to 10000
15,"CNC(=O)c1c(-c2c(F)cccc2Cl)noc1-c1cnn(-c2cccc(F)c2)c1C(F)(F)F [Example 62, 3-(2-chloro-6-fluorophenyl)-5-(1-(3-fluorophenyl)-5-(trifluoromethyl)-1H-pyrazol-4-yl)-N-methylisoxazole-4-carboxamide]",10 to 100
16,"CC(C)OC(=O)c1c(-c2c(F)cccc2Cl)noc1-c1cnn(-c2ccncc2)c1C(F)(F)F [Example B-82, isopropyl 3-(2-chloro-6-fluorophenyl)-5-(1-(pyridin-4-yl)-5-(trifluoromethyl)-1H-pyrazol-4-yl)isoxazole-4-carboxylate]",10 to 100
17,"Nc1c(-c2c(F)cccc2Cl)noc1-c1cnn(-c2cccc(F)c2)c1C(F)(F)F [Example 117, 3-(2-chloro-6-fluorophenyl)-5-(1-(3-fluorophenyl)-5-(trifluoromethyl)-1H-pyrazol-4-yl)isoxazol-4-amine]",100 to 1000
18,"CC(C)OC(=O)c1c(-c2c(F)cccc2Cl)noc1-c1cnn(-c2cccc(S(N)(=O)=O)c2)c1C(F)(F)F [Example B-73, isopropyl 3-(2-chloro-6-fluorophenyl)-5-(1-(3-sulfamoylphenyl)-5-(trifluoromethyl)-1H-pyrazol-4-yl)isoxazole-4-carboxylate]",1000 to 10000
19,"CCOC(=O)c1c(-c2c(F)cccc2Cl)noc1-c1cnn(-c2ccccc2Br)c1C(F)(F)F [Example B-72, ethyl 5-(1-(2-bromophenyl)-5-(trifluoromethyl)-1H-pyrazol-4-yl)-3-(2-chloro-6-fluorophenyl)isoxazole-4-carboxylate]",100 to 1000
20,"Fc1cccc(Cl)c1-c1noc(-c2cnn(-c3ccncc3)c2C(F)(F)F)c1Br [Example B-83, 4-bromo-3-(2-chloro-6-fluorophenyl)-5-(1-(pyridin-4-yl)-5-(trifluoromethyl)-1H-pyrazol-4-yl)isoxazole]",1000 to 10000
21,"CCOC(=O)c1c(-c2onc(-c3c(F)cccc3Cl)c2C(=O)OC)cnn1-c1ccc(F)cc1F [Example 35, methyl 3-(2-chloro-6-fluorophenyl)-5-(1-(2,4-difluorophenyl)-5-(ethoxycarbonyl)-1H-pyrazol-4-yl)isoxazole-4-carboxylate]",100 to 1000
22,"CCOC(=O)c1c(-c2ccccc2F)noc1-c1cnn(-c2cccc(Cl)c2)c1C(F)(F)F [Example B-47, ethyl 5-(1-(3-chlorophenyl)-5-(trifluoromethyl)-1H-pyrazol-4-yl)-3-(2-fluorophenyl)isoxazole-4-carboxylate]",10 to 100
23,"CC(C)OC(=O)c1c(-c2c(F)cccc2Cl)noc1-c1cnn(-c2cccnc2)c1C(F)(F)F [Example B-61, isopropyl 3-(2-chloro-6-fluorophenyl)-5-(1-(pyridin-3-yl)-5-(trifluoromethyl)-1H-pyrazol-4-yl)isoxazole-4-carboxylate]",10 to 100
24,"Fc1cc(F)cc(-n2ncc(-c3onc(-c4c(F)cccc4Cl)c3Br)c2C(F)(F)F)c1 [Example B-27, 4-bromo-3-(2-chloro-6-fluorophenyl)-5-(1-(3,5-difluorophenyl)-5-(trifluoromethyl)-1H-pyrazol-4-yl)isoxazole]",100 to 1000
25,"N#Cc1c(-c2c(F)cccc2Cl)noc1-c1cnn(-c2cccc(Cl)c2)c1C(F)(F)F [Example 49, 3-(2-chloro-6-fluorophenyl)-5-(1-(3-chlorophenyl)-5-(trifluoromethyl)-1H-pyrazol-4-yl)isoxazole-4-carbonitrile]",100 to 1000
26,"COC(=O)c1c(-c2ccc(Cl)c(Cl)c2)noc1-c1cnn(-c2cccc(F)c2)c1C(F)(F)F [Example 97, methyl 3-(3,4-dichlorophenyl)-5-(1-(3-fluorophenyl)-5-(trifluoromethyl)-1H-pyrazol-4-yl)isoxazole-4-carboxylate]",1000 to 10000
